In US10428066B2, “Imidazo[4,5-C]pyridine and pyrrolo[2,3-C]pyridine derivatives as SSAO inhibitors” (PROXIMAGEN, LLC, priority 2013, dated 2019):
Counter-ions that a name gives are not always drawn.

biological target: purified recombinantly expressed human SSAO (Homo sapiens (Human), UniProt Q16853); assay: SSAO enzyme inhibition assay (HRP-coupled hydrogen peroxide detection or 14C-benzaldehyde detection, benzylamine substrate); assay type: biochemical; conditions: human recombinant SSAO, RT
Experimental: All primary assays were performed at RT. with purified recombinantly expressed human SSAO. Enzyme was prepared essentially as described in Öhman et al. (Protein Expression and Purification 46 (2006) 321-331). In addition, secondary- and selectivity assays were performed using SSAO prepared from various tissues or purified rat recombinant SSAO. The enzyme activity was assayed with benzylamine as substrate by measuring either benzaldehyde production, using ^14C-labeled substrate, or by utilizing the production of hydrogen peroxide in a horseradish peroxidase (HRP) coupled reaction. Briefly, test compounds were dissolved in dimethyl sulfoxide (DMSO) to a concentration of 10 mM. Dose-response measurements were assayed by either creating 1:10 serial dilutions in DMSO to produce a 7 point curve or by making 1:3 serial dilutions in DMSO to produce 11 point curves.
In a horseradish peroxidase (HRP) coupled reaction, hydrogen peroxide oxidation of 10-acetyl-3,7-dihydroxyphenoxazine produced resorufin, which is a highly fluorescent compound (Zhout and Panchuk-Voloshina. Analytical Biochemistry 253 (1997) 169-174; Amplex® Red Hydrogen Peroxide/peroxidase Assay kit, Invitrogen A22188). Enzyme and compounds in 50 mM sodium phosphate, pH 7.4 were set to pre-incubate in flat-bottomed microtiter plates for approximately 15 min before initiating the reaction by addition of a mixture of HRP, benzylamine and Amplex reagent. Benzylamine concentration was fixed at a concentration corresponding to the Michaelis constant, determined using standard procedures. Fluorescence intensity was then measured at several time points during 1-2 h, exciting at 544 nm and reading the emission at 590 nm. For the human SSAO assay final concentrations of the reagents in the assay wells were: SSAO enzyme 1 ug/ml, benzylamine 100 uM, Amplex reagent 20 uM, HRP 0.1 U/mL and varying concentrations of test compound. The inhibition was measured as % decrease of the signal compared to a control without inhibitor (only diluted DMSO). The background signal from a sample containing no SSAO enzyme was subtracted from all data points. Data was fitted to a four parameter logistic model and IC50 values were calculated using the GraphPad Prism 4 or XLfit 4 programs.
SSAO activity was assayed using 14C-labeled benzylamine and analysed by measuring radioactive benzaldehyde. In a white 96-well optiplate (Packard), 20 uL of diluted test compound was pre-incubated at room temperature with 20 uL SSAO enzyme for approximately 15 min with continuous agitation. All dilutions were made with PBS. The reaction was initiated by adding 20 uL of the benzylamine substrate solution containing [7-14C] Benzylamine hydrochloride (CFA589, GE Healthcare). The plate was incubated for 1 h as above after which the reaction was stopped by acidification (10 uL 1M aq HCl). Then 90 uL Micro Scint-E solution (Perkin-Elmer) was added to each well and the plate was continuously mixed for 15 min. Phase separation occurred instantly and activity was read in a Topcount scintillation counter (Perkin-Elmer). In the final reaction well, the human recombinant SSAO concentration was 10 ug/ml. In order to optimize sensitivity, the substrate concentration was decreased as compared to the HRP coupled assay in order to get a higher fraction of radioactive product. In the human SSAO assay, benzylamine concentration was 40 uM (0.2 uCi/mL). Data was analysed as above.

Chain of purified recombinantly expressed human SSAO (Q16853 29-763): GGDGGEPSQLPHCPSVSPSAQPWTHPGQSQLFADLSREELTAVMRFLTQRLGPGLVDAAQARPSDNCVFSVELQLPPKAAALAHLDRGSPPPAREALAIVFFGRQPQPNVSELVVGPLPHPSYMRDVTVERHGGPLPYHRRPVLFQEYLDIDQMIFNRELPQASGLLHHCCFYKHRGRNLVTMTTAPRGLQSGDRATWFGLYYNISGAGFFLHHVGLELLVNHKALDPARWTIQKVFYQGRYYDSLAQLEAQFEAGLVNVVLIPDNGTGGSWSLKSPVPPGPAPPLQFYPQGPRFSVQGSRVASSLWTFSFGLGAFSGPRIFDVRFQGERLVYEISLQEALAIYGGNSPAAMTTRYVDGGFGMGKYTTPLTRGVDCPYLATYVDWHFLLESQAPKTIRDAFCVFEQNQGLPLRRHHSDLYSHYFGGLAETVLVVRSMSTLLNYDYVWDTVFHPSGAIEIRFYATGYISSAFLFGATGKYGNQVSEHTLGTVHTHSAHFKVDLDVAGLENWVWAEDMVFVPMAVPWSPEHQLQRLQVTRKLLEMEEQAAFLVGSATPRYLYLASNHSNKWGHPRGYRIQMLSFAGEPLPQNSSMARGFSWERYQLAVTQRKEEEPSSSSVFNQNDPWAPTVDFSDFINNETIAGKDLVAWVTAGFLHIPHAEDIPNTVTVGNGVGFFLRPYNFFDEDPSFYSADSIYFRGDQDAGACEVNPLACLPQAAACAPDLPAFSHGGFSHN

IC50 | Structure (SMILES)
200 to 1200 nM | Clc1ccc(-n2c(-c3cccnc3)nc3ccncc32)cc1 [Example 1, 3-[3-(4-Chlorophenyl)-3H-imidazo[4,5-c]pyridin-2-yl]pyridine]
200 to 1200 nM | Clc1ccc(-n2c(-c3ccncc3)nc3ccncc32)cc1 [Example 2, 4-[3-(4-Chlorophenyl)-3H-imidazo[4,5-c]pyridin-2-yl]pyridine]
50 to 200 nM | Clc1ccc(-n2c(-c3ccc(CN4CCOCC4)nc3)nc3ccncc32)cc1 [Example 3, 4-({5-[3-(4-Chlorophenyl)-3H-imidazo[4,5-c]pyridin-2-yl]pyridin-2-yl}methyl)morpholine]
50 to 200 nM | Clc1ccc(-n2c(-c3cnc(N4CCOCC4)cn3)nc3ccncc32)cc1 [Example 5, 4-{5-[3-(4-Chlorophenyl)-3H-imidazo[4,5-c]pyridin-2-yl]pyrazin-2-yl}morpholine]
200 to 1200 nM | O=C(c1ccc(-c2nc3ccncc3n2-c2ccc(Cl)cc2)cn1)N1CCOCC1 [Example 6, 4-({5-[3-(4-Chlorophenyl)-3H-imidazo[4,5-c]pyridin-2-yl]pyridin-2-yl}carbonyl)morpholine]
50 to 200 nM | Clc1ccc(-n2c(-c3cnc(NC4CCOCC4)cn3)nc3ccncc32)cc1 [Example 7, 5-[3-(4-Chlorophenyl)-3H-imidazo[4,5-c]pyridin-2-yl]-N-(oxan-4-yl)pyrazin-2-amine]
50 to 200 nM | Fc1ccc(-n2c(-c3cnc(NC4CC4)nc3)nc3ccncc32)cc1 [Example 10, N-Cyclopropyl-5-[3-(4-fluorophenyl)-3H-imidazo[4,5-c]pyridin-2-yl]pyrimidin-2-amine]
50 to 200 nM | O=C1CN(c2ncc(-c3nc4ccncc4n3-c3ccc(F)cc3)cn2)CCN1 [Example 12, 4-{5-[3-(4-Fluorophenyl)-3H-imidazo[4,5-c]pyridin-2-yl]pyrimidin-2-yl}piperazin-2-one]
200 to 1200 nM | O=C(NC1CC1)c1ccc(-c2nc3ccncc3n2-c2ccc(Cl)cc2)cn1 [Example 14, 5-[3-(4-Chlorophenyl)-3H-imidazo[4,5-c]pyridin-2-yl]-N-cyclopropylpyridine-2-carboxamide]
50 to 200 nM | Fc1ccc(-n2c(-c3ccc(C4CCOCC4)nn3)nc3ccncc32)cc1 [Example 15, 3-[3-(4-Fluorophenyl)-3H-imidazo[4,5-c]pyridin-2-yl]-6-(oxan-4-yl)pyridazine]
200 to 1200 nM | CS(=O)(=O)Nc1ccc(-c2nc3ccncc3n2-c2ccc(Cl)cc2)cn1 [Example 16, N-{5-[3-(4-Chlorophenyl)-3H-imidazo[4,5-c]pyridin-2-yl]pyridin-2-yl}methanesulfonamide]
200 to 1200 nM | Clc1ccc(-n2c(-c3csc(N4CCNCC4)n3)nc3ccncc32)cc1 [Example 17, 1-{4-[3-(4-Chlorophenyl)-3H-imidazo[4,5-c]pyridin-2-yl]-1,3-thiazol-2-yl}piperazine dihydrochloride]
50 to 200 nM | Clc1ccc(-n2c(-c3cnc(N4CCNCC4)o3)nc3ccncc32)cc1 [Example 18, 1-{5-[3-(4-Chlorophenyl)-3H-imidazo[4,5-c]pyridin-2-yl]-1,3-oxazol-2-yl}piperazine dihydrochloride]
50 to 200 nM | Clc1ccc(-n2c(-c3cnc(N4CCNCC4)s3)nc3ccncc32)cc1 [Example 19, 1-{5-[3-(4-Chlorophenyl)-3H-imidazo[4,5-c]pyridin-2-yl]-1,3-thiazol-2-yl}piperazine]
50 to 200 nM | Fc1ccc(-n2c(-c3cnc(NC4CCOCC4)nc3)nc3ccncc32)cc1 [Example 20, 5-[3-(4-Fluorophenyl)-3H-imidazo[4,5-c]pyridin-2-yl]-N-(oxan-4-yl)pyrimidin-2-amine]
50 to 200 nM | Cc1nc(N2CCOCC2)ncc1-c1nc2ccncc2n1-c1ccc(F)cc1 [Example 26, 4-{5-[3-(4-Fluorophenyl)-3H-imidazo[4,5-c]pyridin-2-yl]-4-methylpyrimidin-2-yl}morpholine]
50 to 200 nM | COc1nc(N2CCOCC2)ccc1-c1nc2ccncc2n1-c1ccc(F)cc1 [Example 28, 4-{5-[3-(4-Fluorophenyl)-3H-imidazo[4,5-c]pyridin-2-yl]-6-methoxypyridin-2-yl}morpholine]

IC50 | Structure (SMILES)
200 to 1200 nM | Cc1cc(N2CCOCC2)nc(C)c1-c1nc2ccncc2n1-c1ccc(F)cc1 [Example 29, 4-{5-[3-(4-Fluorophenyl)-3H-imidazo[4,5-c]pyridin-2-yl]-4,6-dimethylpyridin-2-yl}morpholine]
200 to 1200 nM | Fc1ccc(-n2c(-c3cnc(C4CC4)nc3)nc3ccncc32)cc1 [Example 30, 2-Cyclopropyl-5-[3-(4-fluorophenyl)-3H-imidazo[4,5-c]pyridin-2-yl]pyrimidine]
200 to 1200 nM | Nc1ncc(-c2nc3ccncc3n2-c2ccc(Cl)cc2)cn1 [Example 31, 5-[3-(4-Chlorophenyl)-3H-imidazo[4,5-c]pyridin-2-yl]pyrimidin-2-amine]
200 to 1200 nM | Cn1cc(-c2nc3ccncc3n2-c2ccc(Cl)cc2)ccc1=O [Example 33, 5-[3-(4-Chlorophenyl)-3H-imidazo[4,5-c]pyridin-2-yl]-1-methyl-1,2-dihydropyridin-2-one]
50 to 200 nM | O=c1cc(-c2nc3ccncc3n2-c2ccc(Cl)cc2F)cc[nH]1 [Example 34, 4-[3-(4-Chloro-2-fluorophenyl)-3H-imidazo[4,5-c]pyridin-2-yl]-1,2-dihydropyridin-2-one]
200 to 1200 nM | O=c1ccc(-c2nc3ccncc3n2-c2ccc(Cl)cc2F)c[nH]1 [Example 35, 5-[3-(4-Chloro-2-fluorophenyl)-3H-imidazo[4,5-c]pyridin-2-yl]-1,2-dihydropyridin-2-one]
50 to 200 nM | Cc1ccc(-n2c(-c3cnc(N4C[C@@H](C)O[C@@H](C)C4)nc3)nc3ccncc32)nc1 [Example 36, (2R,6S)-2,6-Dimethyl-4-{5-[3-(5-methylpyridin-2-yl)-3H-imidazo[4,5-c]pyridin-2-yl]pyrimidin-2-yl}morpholine]
50 to 200 nM | CC(C)OCCNc1ncc(-c2nc3ccncc3n2-c2ccc(F)cc2)cn1 [Example 38, 5-[3-(4-Fluorophenyl)-3H-imidazo[4,5-c]pyridin-2-yl]-N-[2-(propan-2-yloxy)ethyl]pyrimidin-2-amine]
50 to 200 nM | CN1CCN(c2ncc(-c3nc4ccncc4n3-c3ccc(F)cc3)cn2)CC1=O [Example 40, 4-{5-[3-(4-Fluorophenyl)-3H-imidazo[4,5-c]pyridin-2-yl]pyrimidin-2-yl}-1-methylpiperazin-2-one]
50 to 200 nM | CCOCCNc1ncc(-c2nc3ccncc3n2-c2ccc(F)cc2)cn1 [Example 42, N-(2-Ethoxyethyl)-5-[3-(4-fluorophenyl)-3H-imidazo[4,5-c]pyridin-2-yl]pyrimidin-2-amine]
200 to 1200 nM | Clc1ccc(-n2c(-c3cnc[nH]3)nc3ccncc32)cc1 [Example 44, 5-[3-(4-Chlorophenyl)-3H-imidazo[4,5-c]pyridin-2-yl]-1H-imidazole]
200 to 1200 nM | CN1CCN(Cc2cccc(-c3nc4ccncc4n3-c3ccc(Cl)cc3)c2)CC1 [Example 45, 1-({3-[3-(4-Chlorophenyl)-3H-imidazo[4,5-c]pyridin-2-yl]phenyl}methyl)-4-methylpiperazine; formic acid]
200 to 1200 nM | Cc1ccc(-n2c(-c3cnc(N4CCOCC4)nc3)nc3ccncc32)c(F)c1 [Example 53, 4-{5-[3-(2-Fluoro-4-methylphenyl)-3H-imidazo[4,5-c]pyridin-2-yl]pyrimidin-2-yl}morpholine]
200 to 1200 nM | Fc1ccc(-n2c(-c3ccc(N4CCOCC4)nc3)nc3ccncc32)cc1 [Example 54, 4-{5-[3-(4-Fluorophenyl)-3H-imidazo[4,5-c]pyridin-2-yl]pyridin-2-yl}morpholine]
200 to 1200 nM | Fc1ccc(-n2c(-c3cnc(N4CCOCC4)nc3)nc3ccncc32)c(Cl)c1 [Example 56, 4-{5-[3-(2-Chloro-4-fluorophenyl)-3H-imidazo[4,5-c]pyridin-2-yl]pyrimidin-2-yl}morpholine]
50 to 200 nM | Cc1ccc(-n2c(-c3cnc(N4CCOCC4)nc3)nc3ccncc32)cc1 [Example 57, 4-{5-[3-(4-Methylphenyl)-3H-imidazo[4,5-c]pyridin-2-yl]pyrimidin-2-yl}morpholine]
